Molecular target: T1, human MutSbeta (Homo sapiens, UniProt P20585+P43246)
T1 construct: Msh2(1-934), Gene ID NP_000242.1; Msh3(1-1137), Gene ID J04810.1
Test: P33 SPA
Type: biochemical
Details: ATP added to compounds first, then enzyme with DNA; 2 μM ATP, 7 nM enzyme, 60 min 37° C.
Experimental: P33 SPA: Enzyme human MutSbeta (Msh2(1-934), Gene ID NP_000242.1, Msh3(1-1137), Gene ID J04810.1) and 22 bp biotin-labeled DNA containing a GT-mismatch (purchased from Curia Global, TOP 5′-[…]-3′; BOT 3′-AGTAGCTAGGC - - - CGAAGTCTACC-5′-Biotin) were pre-incubated at equimolar concentration for 15 min at room temperature (“RT”) in assay buffer (25 mM HEPES pH=7.5, 150 mM KCl, 2 mM MgCl2, 2 mM GSH, 0.01% Tween-20). ATP (10 μL, 2× final concentration of γ-[^33P]-ATP (final 0.1 nM; Hartmann Analytic, FF-301) and cold ATP (final 2 μM)) was added to compounds (400 nL spotted as concentration response in 100% DMSO into wells of an OptiPlate) and pre-incubated for 30 min at RT. Then, enzyme with DNA was added (10 μL, 2× final concentration of 7 nM) and incubated for 60 min at 37° C. in a total volume of 20 μL per well. Decay of [^33P] with a half-life of 25.4 days was corrected by increasing the concentration of the labelled nucleotide with the appropriate factor; all steps with radioactive ATP were conducted behind appropriate shielding. Then, 20 μL of a 1:2 mix of ammonium molybdate (20 mg/mL Ammonium molybdate in 2.4 M HCl) and SPA beads (ProteinA SPA beads from Perkin Elmer Cat #RPNQ0019 at 7.5 mg/mL+1% azide) was added per well and incubated at RT for 2 min. Then, 40 μL of 7 M CsCl and 0.1 M citrate was added per well and incubated for 20 h at RT before measuring on the MicroBeta (top read mode, 1 min per well). For full plate processing, all reagents were transferred with a pipettor (Selma, CyBio) apart from the final reagent (CsCl+citrate) which was added with a dispenser (MultiFlo, BioTek). Data analysis during assay development was done with Prism GraphPad.

T1 sequence (P43246 whole entry): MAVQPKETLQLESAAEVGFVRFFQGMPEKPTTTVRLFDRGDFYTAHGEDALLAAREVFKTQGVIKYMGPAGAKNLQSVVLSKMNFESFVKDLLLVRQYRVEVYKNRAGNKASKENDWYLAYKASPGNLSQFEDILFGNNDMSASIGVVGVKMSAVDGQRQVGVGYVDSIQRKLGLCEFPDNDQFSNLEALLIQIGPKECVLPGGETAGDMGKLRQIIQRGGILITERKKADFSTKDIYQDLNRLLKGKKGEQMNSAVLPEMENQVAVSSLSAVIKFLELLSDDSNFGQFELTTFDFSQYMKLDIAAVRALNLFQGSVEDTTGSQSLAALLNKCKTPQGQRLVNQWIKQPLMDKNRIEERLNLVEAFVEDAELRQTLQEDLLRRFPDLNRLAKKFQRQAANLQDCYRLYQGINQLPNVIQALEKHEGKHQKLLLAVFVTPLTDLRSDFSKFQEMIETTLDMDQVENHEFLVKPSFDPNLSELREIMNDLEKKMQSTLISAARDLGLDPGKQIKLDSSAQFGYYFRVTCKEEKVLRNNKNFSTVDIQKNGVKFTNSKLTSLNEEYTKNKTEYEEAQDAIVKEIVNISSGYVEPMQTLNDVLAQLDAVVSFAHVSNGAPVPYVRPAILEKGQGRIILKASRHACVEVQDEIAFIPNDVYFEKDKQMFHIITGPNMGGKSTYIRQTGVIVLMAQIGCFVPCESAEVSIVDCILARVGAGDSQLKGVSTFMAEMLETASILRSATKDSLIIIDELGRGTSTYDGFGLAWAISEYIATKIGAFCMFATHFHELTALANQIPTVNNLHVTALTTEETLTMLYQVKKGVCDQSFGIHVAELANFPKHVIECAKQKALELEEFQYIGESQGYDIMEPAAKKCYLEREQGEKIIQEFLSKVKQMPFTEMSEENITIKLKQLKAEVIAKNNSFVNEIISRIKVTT
T1 sequence (P20585 whole entry): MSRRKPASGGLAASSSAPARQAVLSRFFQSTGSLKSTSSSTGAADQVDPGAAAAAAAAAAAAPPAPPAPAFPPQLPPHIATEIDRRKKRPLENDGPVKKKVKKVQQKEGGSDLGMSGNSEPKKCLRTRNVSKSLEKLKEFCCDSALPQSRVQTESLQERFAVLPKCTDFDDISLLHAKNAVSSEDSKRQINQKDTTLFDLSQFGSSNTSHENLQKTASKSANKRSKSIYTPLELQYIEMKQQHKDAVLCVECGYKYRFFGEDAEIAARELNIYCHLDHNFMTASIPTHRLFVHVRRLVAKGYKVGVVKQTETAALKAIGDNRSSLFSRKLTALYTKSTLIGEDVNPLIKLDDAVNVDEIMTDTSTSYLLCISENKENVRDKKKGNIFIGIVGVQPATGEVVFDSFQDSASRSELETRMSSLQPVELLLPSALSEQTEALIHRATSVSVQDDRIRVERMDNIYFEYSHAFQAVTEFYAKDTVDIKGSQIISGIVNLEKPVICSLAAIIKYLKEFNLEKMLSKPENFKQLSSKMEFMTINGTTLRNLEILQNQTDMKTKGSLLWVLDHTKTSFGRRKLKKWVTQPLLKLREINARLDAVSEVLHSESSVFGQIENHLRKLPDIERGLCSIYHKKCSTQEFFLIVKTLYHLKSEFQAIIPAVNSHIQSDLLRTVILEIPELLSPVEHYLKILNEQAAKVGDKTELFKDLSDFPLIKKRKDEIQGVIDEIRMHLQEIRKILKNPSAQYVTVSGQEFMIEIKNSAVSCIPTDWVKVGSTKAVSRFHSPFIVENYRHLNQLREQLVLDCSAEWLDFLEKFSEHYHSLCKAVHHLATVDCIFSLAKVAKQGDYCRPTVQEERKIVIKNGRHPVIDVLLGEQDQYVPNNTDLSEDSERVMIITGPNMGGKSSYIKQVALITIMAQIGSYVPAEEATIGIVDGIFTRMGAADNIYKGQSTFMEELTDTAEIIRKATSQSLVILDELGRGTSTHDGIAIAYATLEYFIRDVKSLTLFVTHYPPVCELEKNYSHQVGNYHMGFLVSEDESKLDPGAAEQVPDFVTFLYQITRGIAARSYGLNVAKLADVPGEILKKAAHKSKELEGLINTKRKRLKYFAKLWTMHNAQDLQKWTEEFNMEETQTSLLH

Question: Which IC50 does the source give for `Cc1ccc(Nc2nc(N3CCN(C)CC3)nc3nccnc23)cc1C` [Compound 2, N-(3,4-dimethylphenyl)-2-(4-methylpiperazin-1-yl)pteridin-4-amine] here?
Answer: 28.6 µM

Question: Which IC50 does the source give for `CCN1CCN(c2nc(Nc3ccc(Cl)cc3)c3nccnc3n2)CC1` [Compound 4, N-(4-Chlorophenyl)-2-(4-ethylpiperazin-1-yl)pteridin-4-amine] here?
Answer: 23.8 µM
